Measurements published in ChEMBL document CHEMBL1201862, “PubChem BioAssay data set” (2004).
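96-well plates; 48 h exposure; 5 concentrations. Endpoints by linear interpolation between flanking doses. Not reached: highest tested concentration assigned. Abbreviation: GI50, concentration required for 50% inhibition of growth.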 Active and inactive are the calls of the source. Rule as the data show it: active = GI50 up to about 1.1 µM and inactive = higher.

Legend:
Assay in all cases: NCI-60 cell line screen, 48 h
SN12C = tested on: SN12C
RXF 631 = tested on: RXF 631
IGROV-1 = tested on: IGROV-1
LXFL 529 = tested on: LXFL 529
EKVX = tested on: EKVX
TK-10 = tested on: TK-10
SNB-19 = tested on: SNB-19
Malme-3M = tested on: Malme-3M
CCRF-CEM = tested on: CCRF-CEM
SNB-75 = tested on: SNB-75
786-0 = tested on: 786-0
SF-295 = tested on: SF-295
SK-MEL-28 = tested on: SK-MEL-28
SF-539 = tested on: SF-539
NCI-H522 = tested on: NCI-H522
UO-31 = tested on: UO-31
NCI-H23 = tested on: NCI-H23
UACC-257 = tested on: UACC-257
HL-60 = tested on: HL-60
SF-268 = tested on: SF-268
HT-29 = tested on: HT-29
CAKI-1 = tested on: CAKI-1
KM-20L2 = tested on: KM-20L2
M19-MEL = tested on: M19-MEL
SK-MEL-2 = tested on: SK-MEL-2
SK-OV-3 = tested on: SK-OV-3
SW-620 = tested on: SW-620
HOP-92 = tested on: HOP-92
UACC-62 = tested on: UACC-62
DMS-273 = tested on: DMS-273
SNB-78 = tested on: SNB-78
ACHN = tested on: ACHN
DLD-1 = tested on: DLD-1
OVCAR-3 = tested on: OVCAR-3
U-251 = tested on: U-251
MOLT-4 = tested on: MOLT-4
HCT-116 = tested on: HCT-116
K562 = tested on: K562
A549 = tested on: A549
LOX IMVI = tested on: LOX IMVI
SR = tested on: SR
RPMI-8226 = tested on: RPMI-8226
KM12 = tested on: KM12
XF498 = tested on: XF498
M14 = tested on: M14
NCI-H226 = tested on: NCI-H226
OVCAR-8 = tested on: OVCAR-8
HOP-18 = tested on: HOP-18
OVCAR-5 = tested on: OVCAR-5
HCC 2998 = tested on: HCC 2998
NCI-H460 = tested on: NCI-H460
HCT-15 = tested on: HCT-15
DMS-114 = tested on: DMS-114
OVCAR-4 = tested on: OVCAR-4
A498 = tested on: A498
SK-MEL-5 = tested on: SK-MEL-5
COLO 205 = tested on: COLO 205
RXF 393 = tested on: RXF 393
HOP-62 = tested on: HOP-62

With `N/N=C1\C(=O)N(CCc2ccccc2)C(=O)C1C(=O)NCCc1ccccc1` (stereo unspecified) the GI50 (SN12C) was > 100 µM (inactive), the GI50 (RXF 631) was > 100 µM (inactive) and the GI50 (IGROV-1) was > 100 µM (inactive). For the same molecule, the GI50 (LXFL 529) was > 100 µM (inactive), the GI50 (EKVX) was > 100 µM (inactive) and the GI50 (TK-10) was > 100 µM (inactive). The GI50 (SNB-19) was > 100 µM (inactive), the GI50 (Malme-3M) was > 100 µM (inactive) and the GI50 (CCRF-CEM) was > 100 µM (inactive). The GI50 (SNB-75) was > 100 µM (inactive), the GI50 (786-0) was > 100 µM (inactive) and the GI50 (SF-295) was > 100 µM (inactive). The GI50 (SK-MEL-28) was > 100 µM (inactive), the GI50 (SF-539) was > 100 µM (inactive) and the GI50 (NCI-H522) was > 100 µM (inactive). The GI50 (UO-31) was > 100 µM (inactive), the GI50 (NCI-H23) was > 100 µM (inactive) and the GI50 (UACC-257) was > 100 µM (inactive). For the same molecule, the GI50 (HL-60) was > 100 µM (inactive), the GI50 (SF-268) was > 100 µM (inactive) and the GI50 (HT-29) was > 100 µM (inactive). The GI50 (CAKI-1) was > 100 µM (inactive), the GI50 (KM-20L2) was > 100 µM (inactive) and the GI50 (M19-MEL) was > 100 µM (inactive). For the same molecule, the GI50 (SK-MEL-2) was > 100 µM (inactive), the GI50 (SK-OV-3) was > 100 µM (inactive) and the GI50 (SW-620) was > 100 µM (inactive). For the same molecule, the GI50 (HOP-92) was > 100 µM (inactive), the GI50 (UACC-62) was > 100 µM (inactive) and the GI50 (DMS-273) was > 100 µM (inactive). For the same molecule, the GI50 (SNB-78) was > 100 µM (inactive), the GI50 (ACHN) was > 100 µM (inactive) and the GI50 (DLD-1) was > 100 µM (inactive). The GI50 (OVCAR-3) was > 100 µM (inactive), the GI50 (U-251) was > 100 µM (inactive) and the GI50 (MOLT-4) was > 100 µM (inactive). The GI50 (HCT-116) was > 100 µM (inactive), the GI50 (K562) was > 100 µM (inactive) and the GI50 (A549) was > 100 µM (inactive). For the same molecule, the GI50 (LOX IMVI) was > 100 µM (inactive), the GI50 (SR) was > 100 µM (inactive) and the GI50 (RPMI-8226) was > 100 µM (inactive). The GI50 (KM12) was > 100 µM (inactive), the GI50 (XF498) was > 100 µM (inactive) and the GI50 (M14) was > 100 µM (inactive). For the same molecule, the GI50 (NCI-H226) was > 100 µM (inactive).

With `CCC(=O)C1=C(OC(C)=O)C2Cc3c(n(C)c4ccccc34)C(C1)N2C` (stereo unspecified) the GI50 (SN12C) was 25.3 µM (inactive), the GI50 (OVCAR-8) was 18.9 µM (inactive) and the GI50 (RXF 631) was 22.9 µM (inactive). For the same molecule, the GI50 (IGROV-1) was 29.9 µM (inactive), the GI50 (LXFL 529) was 29 µM (inactive) and the GI50 (EKVX) was 64.3 µM (inactive). The GI50 (TK-10) was 66.1 µM (inactive), the GI50 (HOP-18) was 25.4 µM (inactive) and the GI50 (SNB-19) was > 100 µM (inactive). The GI50 (OVCAR-5) was > 100 µM (inactive), the GI50 (Malme-3M) was 48.6 µM (inactive) and the GI50 (CCRF-CEM) was 27 µM (inactive). For the same molecule, the GI50 (SNB-75) was 25.5 µM (inactive), the GI50 (786-0) was 22.2 µM (inactive) and the GI50 (HCC 2998) was 38 µM (inactive). For the same molecule, the GI50 (SF-295) was > 100 µM (inactive), the GI50 (SK-MEL-28) was 71.8 µM (inactive) and the GI50 (SF-539) was 16.7 µM (inactive). For the same molecule, the GI50 (NCI-H522) was 15.3 µM (inactive), the GI50 (UO-31) was 36.1 µM (inactive) and the GI50 (NCI-H23) was 68.9 µM (inactive). For the same molecule, the GI50 (NCI-H460) was 53 µM (inactive), the GI50 (UACC-257) was 24.5 µM (inactive) and the GI50 (HL-60) was 21.6 µM (inactive). For the same molecule, the GI50 (HCT-15) was 18.7 µM, the GI50 (SF-268) was 19 µM (inactive) and the GI50 (HT-29) was 30.8 µM (inactive). For the same molecule, the GI50 (CAKI-1) was 33.7 µM (inactive), the GI50 (KM-20L2) was 35.9 µM (inactive) and the GI50 (DMS-114) was 26.7 µM (inactive). The GI50 (M19-MEL) was 41.4 µM (inactive), the GI50 (SK-MEL-2) was 63.7 µM (inactive) and the GI50 (SK-OV-3) was > 100 µM (inactive). The GI50 (SW-620) was 26.1 µM (inactive), the GI50 (HOP-92) was 67 µM (inactive) and the GI50 (UACC-62) was 26.2 µM (inactive). The GI50 (DMS-273) was 20 µM (inactive), the GI50 (SNB-78) was 22.3 µM (inactive) and the GI50 (ACHN) was 27.3 µM (inactive). For the same molecule, the GI50 (DLD-1) was 23.8 µM (inactive), the GI50 (OVCAR-4) was 28.4 µM (inactive) and the GI50 (OVCAR-3) was 22.9 µM (inactive). The GI50 (U-251) was > 100 µM (inactive), the GI50 (A498) was 42.9 µM (inactive) and the GI50 (MOLT-4) was 34.7 µM (inactive). The GI50 (HCT-116) was 29.9 µM (inactive), the GI50 (K562) was 33.3 µM (inactive) and the GI50 (A549) was 68.5 µM (inactive). For the same molecule, the GI50 (LOX IMVI) was 40.5 µM (inactive), the GI50 (SR) was 36.1 µM (inactive) and the GI50 (SK-MEL-5) was 28.2 µM (inactive). The GI50 (KM12) was 45.9 µM (inactive), the GI50 (M14) was 37.8 µM (inactive) and the GI50 (COLO 205) was 34 µM (inactive). For the same molecule, the GI50 (NCI-H226) was > 100 µM (inactive).

`CN(C)c1ccc(C(C=C2c3ccccc3Sc3ccccc32)=C(C#N)C#N)cc1` was tested, and the GI50 (SN12C) was > 100 µM (inactive), the GI50 (RXF 393) was 29 µM (inactive) and the GI50 (OVCAR-8) was 94.8 µM (inactive). For the same molecule, the GI50 (RXF 631) was > 100 µM (inactive), the GI50 (IGROV-1) was > 100 µM (inactive) and the GI50 (LXFL 529) was 86.7 µM (inactive). For the same molecule, the GI50 (EKVX) was > 100 µM (inactive), the GI50 (TK-10) was > 100 µM (inactive) and the GI50 (HOP-18) was > 100 µM (inactive). The GI50 (SNB-19) was 83.4 µM (inactive), the GI50 (OVCAR-5) was > 100 µM (inactive) and the GI50 (Malme-3M) was > 100 µM (inactive). For the same molecule, the GI50 (CCRF-CEM) was > 100 µM (inactive), the GI50 (SNB-75) was 17.1 µM (inactive) and the GI50 (786-0) was 92.3 µM (inactive). For the same molecule, the GI50 (HCC 2998) was > 100 µM (inactive), the GI50 (SF-295) was 87.7 µM (inactive) and the GI50 (SK-MEL-28) was > 100 µM (inactive). For the same molecule, the GI50 (SF-539) was 77.3 µM (inactive), the GI50 (UO-31) was 82.8 µM (inactive) and the GI50 (NCI-H23) was > 100 µM (inactive). The GI50 (NCI-H460) was 68.9 µM (inactive), the GI50 (UACC-257) was > 100 µM (inactive) and the GI50 (HL-60) was > 100 µM (inactive). For the same molecule, the GI50 (HCT-15) was > 100 µM, the GI50 (HOP-62) was 93.8 µM (inactive) and the GI50 (SF-268) was > 100 µM (inactive). For the same molecule, the GI50 (HT-29) was > 100 µM (inactive), the GI50 (CAKI-1) was 65.9 µM (inactive) and the GI50 (KM-20L2) was 89.1 µM (inactive). For the same molecule, the GI50 (DMS-114) was 56.4 µM (inactive), the GI50 (M19-MEL) was > 100 µM (inactive) and the GI50 (SK-MEL-2) was > 100 µM (inactive). For the same molecule, the GI50 (SK-OV-3) was > 100 µM (inactive), the GI50 (SW-620) was > 100 µM (inactive) and the GI50 (UACC-62) was 57.4 µM (inactive). For the same molecule, the GI50 (DMS-273) was 6.81 µM (inactive), the GI50 (SNB-78) was 45.1 µM (inactive) and the GI50 (ACHN) was 37.5 µM (inactive). For the same molecule, the GI50 (DLD-1) was > 100 µM (inactive), the GI50 (OVCAR-4) was 16 µM (inactive) and the GI50 (OVCAR-3) was 45.7 µM (inactive). The GI50 (U-251) was 37.6 µM (inactive), the GI50 (A498) was > 100 µM (inactive) and the GI50 (MOLT-4) was > 100 µM (inactive). For the same molecule, the GI50 (HCT-116) was > 100 µM (inactive), the GI50 (K562) was 5.65 µM (inactive) and the GI50 (A549) was > 100 µM (inactive). For the same molecule, the GI50 (LOX IMVI) was 48.4 µM (inactive), the GI50 (SK-MEL-5) was > 100 µM (inactive) and the GI50 (RPMI-8226) was > 100 µM (inactive). The GI50 (KM12) was > 100 µM (inactive), the GI50 (XF498) was 58.7 µM (inactive) and the GI50 (M14) was 58.6 µM (inactive). For the same molecule, the GI50 (COLO 205) was > 100 µM (inactive).
